Here are results for one compound from ChEMBL document CHEMBL2321670, “Near native binding of a fluorescent serotonin conjugate to serotonin type 3 receptors” (Bioorg Med Chem Lett, 2013).

Holding throughout (type): cell-based
Test [1] addresses T1, 5-hydroxytryptamine receptor 3A (Homo sapiens, UniProt P46098).
T1 sequence (P46098 whole entry): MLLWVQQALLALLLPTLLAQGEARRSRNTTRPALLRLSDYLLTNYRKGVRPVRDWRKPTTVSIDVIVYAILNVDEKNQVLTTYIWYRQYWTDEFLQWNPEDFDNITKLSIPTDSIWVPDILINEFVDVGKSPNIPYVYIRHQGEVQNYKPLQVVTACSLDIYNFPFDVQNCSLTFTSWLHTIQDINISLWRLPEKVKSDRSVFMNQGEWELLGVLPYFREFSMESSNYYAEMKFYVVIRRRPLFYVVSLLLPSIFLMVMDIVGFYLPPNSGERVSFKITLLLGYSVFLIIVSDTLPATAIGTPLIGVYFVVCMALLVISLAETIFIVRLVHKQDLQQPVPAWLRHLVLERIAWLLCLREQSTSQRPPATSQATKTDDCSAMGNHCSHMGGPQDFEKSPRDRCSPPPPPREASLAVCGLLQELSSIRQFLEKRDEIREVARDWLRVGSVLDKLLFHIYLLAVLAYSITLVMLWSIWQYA
The test is described as follows: Binding affinity to C-terminal-His6-tagged 5HT3A receptor (unknown origin) expressed in HEK293 cells after 2 hrs by fluorimetric analysis.

The target of test [2] is T2, 5-hydroxytryptamine receptor 3A (Homo sapiens) (UniProt P46098).
T2 sequence (whole entry): T1 sequence (P46098 whole entry)
Put plainly: Binding affinity to C-terminal-His6-tagged 5HT3A receptor (unknown origin) expressed in HEK293 cells assessed as decrease in fluorescence at 10 to 500 nM after 2 hrs by fluorimetric analysis in presence of granisetron.

Test [3] has as its target T2, 5-hydroxytryptamine receptor 3A (Homo sapiens). Put plainly: Binding affinity to C-terminal-His6-tagged 5HT3A receptor (unknown origin) expressed in HEK293 cells assessed as decrease in fluorescence at 10 to 500 nM after 2 hrs by fluorimetric analysis.

The source made the active and inactive calls. The calls are words filed in the database; no cut-off is given here.

Take `CN(C)c1ccc2c(-c3ccc(C(=O)NCCCCCNC(=O)CCn4cc(CCN)c5cc(O)ccc54)cc3C(=O)[O-])c3ccc(=[N+](C)C)cc-3oc2c1`: the Kd (as a rule, the free concentration of one partner at which half of the binding sites on the other are occupied at equilibrium, for simple one-to-one binding) in test [1] was determined as 83 nM. Moreover, in test [2], the outcome was inactive. Moreover, in test [3], the outcome was Active.
